Reference: US20240246916A1, “7-NITRO-8-HYDROXYQUINOLINE DERIVATIVES, PREPARATION METHOD THEREFORE AND MEDICAL USE THEREOF” (Jiangsu Yahong Meditech Co., Ltd., priority 2021, published 2024)
≈ marks a conversion by molar mass, not a printed value. Where two headings read alike, the source gives them in different places.

Columns and labels:
Format in all cases: cell-based
[1] = test system: Escherichia coli (carbapenem-resistant clinical isolate; ATCC25922); assay: MIC by micro broth dilution (CLSI), Escherichia coli; details: Escherichia coli
From the text: (§1) The test bacteria were one strain of clinically isolated carbapenem-resistant Escherichia coli, two strains of carbapenem-resistant Acinetobacter baumannii, two strains of methicillin-resistant Staphylococcus aureus, two strains of sensitive Staphylococcus aureus, and 7 strains of Klebsiella pneumoniae. Duplicate strains isolated from the same patient were eliminated. There were also […] quality control strains Escherichia coli ATCC25922, Acinetobacter baumannii ATCC19606, Staphylococcus aureus ATCC29213, Klebsiella pneumoniae ATCC BAA-1705, ATCC 43816, ATCC BAA-2472, ATCC-BAA-1898, ATCC-BAA-1899, NCTC 13440 and ATCC-BAA-2470. There were 24 strains in total.
(§2) According to the recommendations of relevant documents of the American Clinical and Laboratory Standards Institute (CLSI), the micro broth dilution method was used to determine the MIC of the compounds of the present invention against clinically isolated strains. • 3.1 Formulation of antibacterial drug: All the compounds of the present invention were dissolved in DMSO. The drug concentration range was 128 mg/L to 0.06 mg/L. • 3.2 Culture medium: The drug susceptibility test used cation adjusted Mueller-Hinton broth (CAMHB). • 3.3 Amount of inoculum: The test bacteria cultured overnight were adjusted to 0.5 McFarland turbidity by the direct colony suspension method, and diluted 100 folds, the final inoculum amount was 10^5 CFU/mL. • 3.4 Culture conditions: The test bacteria were cultured at 35±2° C. for 20 hours in air.
(§3) The drug susceptibility test results were interpretated by reference to CLSI 2019 M100 29th edition criteria.
(§4) The quality control strains of the drug susceptibility test were Escherichia coli ATCC 25922, Acinetobacter baumannii ATCC 19606, Staphylococcus aureus ATCC 29213, Klebsiella pneumoniae ATCC BAA-1705, ATCC 43816, ATCC BAA-2472, ATCC-BAA-1898, ATCC-BAA-1899, NCTC 13440 and ATCC-BAA-2470.
(§5) The results of drug susceptibility test were statistically analyzed by WHONET software (version 5.6).

[2] = test system: Acinetobacter baumannii (carbapenem-resistant clinical isolates; ATCC19606); assay: MIC by micro broth dilution (CLSI), Acinetobacter baumannii; details: Acinetobacter baumannii; for MIC50 / MIC90: ATCC19606
From the text: as §1, §2, §3, §4, §5

[3] = test system: Staphylococcus aureus (methicillin-resistant and sensitive clinical isolates; ATCC29213); assay: MIC by micro broth dilution (CLSI), Staphylococcus aureus
From the text: as §1, §2, §3, §4, §5

[4] = ATCC25922, Clinical strain, read-out: MIC50
[5] = ATCC25922, Clinical strain, read-out: MIC90
[6] = Standard strain ATCC25922, read-out: MIC
[7] = Clinical strain, read-out: MIC50
[8] = Clinical strain, read-out: MIC90
[9] = Standard strain ATCC19606, read-out: MIC
[10] = Standard strain ATCC29213, read-out: MIC
[11] = clinical strains, micro broth dilution, CAMHB, 35±2° C., 20 hours, read-out: MIC50 Escherichia coli Clinical strain
[12] = clinical strains, micro broth dilution, CAMHB, 35±2° C., 20 hours, read-out: MIC90 Escherichia coli Clinical strain
[13] = standard strain ATCC25922, micro broth dilution, CAMHB, 35±2° C., 20 hours, read-out: MIC Escherichia coli Standard strain ATCC25922
[14] = clinical strains, micro broth dilution, CAMHB, 35±2° C., 20 hours, read-out: MIC50 Acinetobacter baumannii Clinical strain
[15] = clinical strains, micro broth dilution, CAMHB, 35±2° C., 20 hours, read-out: MIC90 Acinetobacter baumannii Clinical strain
[16] = standard strain ATCC19606, micro broth dilution, CAMHB, 35±2° C., 20 hours, read-out: MIC Acinetobacter baumannii Standard strain ATCC19606
[17] = clinical strains, micro broth dilution, CAMHB, 35±2° C., 20 hours, read-out: MIC50 Staphylococcus aureus Clinical strain
[18] = clinical strains, micro broth dilution, CAMHB, 35±2° C., 20 hours, read-out: MIC90 Staphylococcus aureus Clinical strain
[19] = standard strain ATCC29213, micro broth dilution, CAMHB, 35±2° C., 20 hours, read-out: MIC Staphylococcus aureus Standard strain ATCC29213

SMILES	MIC50 [1, 4] [µg/mL]	MIC90 [1, 5] [µg/mL]	MIC [1, 6] [µg/mL]	MIC50 [2, 7] [µg/mL]	MIC90 [2, 8] [µg/mL]	MIC [2, 9] [µg/mL]	MIC50 [3, 7] [µg/mL]	MIC90 [3, 8] [µg/mL]	MIC [3, 10] [µg/mL]	MIC50 [1, 11] [µg/mL]	MIC90 [1, 12] [µg/mL]	MIC [1, 13] [µg/mL]	MIC50 [2, 14] [µg/mL]	MIC90 [2, 15] [µg/mL]	MIC [2, 16] [µg/mL]	MIC50 [3, 17] [µg/mL]	MIC90 [3, 18] [µg/mL]	MIC [3, 19] [µg/mL]
O=[N+]([O-])c1ccc2c(OC(F)F)ccnc2c1O [Example 77, 4-(difluoromethoxy)-7-nitroquinolin-8-ol]	16 (≈ 62.5 µM)	128 (≈ 500 µM)	16 (≈ 62.5 µM)	16 (≈ 62.5 µM)	32 (≈ 125 µM)	8 (≈ 31.2 µM)	8 (≈ 31.2 µM)	8 (≈ 31.2 µM)	8 (≈ 31.2 µM)	–	–	–	–	–	–	–	–	–
O=[N+]([O-])c1cc(Br)c2cccnc2c1O [Example 121, 5-bromo-7-nitroquinolin-8-ol]	–	–	–	–	–	–	–	–	–	128 (≈ 476 µM)	128 (≈ 476 µM)	16 (≈ 59.5 µM)	16 (≈ 59.5 µM)	32 (≈ 119 µM)	8 (≈ 29.7 µM)	4 (≈ 14.9 µM)	16 (≈ 59.5 µM)	8 (≈ 29.7 µM)
CCN(CC)Cc1cnc2c(O)c([N+](=O)[O-])ccc2c1 [Example 98, 3-((diethylamino)methyl)-7-nitroquinolin-8-ol]	128 (≈ 465 µM)	128 (≈ 465 µM)	64 (≈ 232 µM)	64 (≈ 232 µM)	128 (≈ 465 µM)	64 (≈ 232 µM)	32 (≈ 116 µM)	64 (≈ 232 µM)	64 (≈ 232 µM)	–	–	–	–	–	–	–	–	–
O=[N+]([O-])c1ccc2c(C(F)F)ccnc2c1O [Example 81, 4-(difluoromethyl)-7-nitroquinolin-8-ol]	32 (≈ 133 µM)	128 (≈ 533 µM)	16 (≈ 66.6 µM)	16 (≈ 66.6 µM)	32 (≈ 133 µM)	16 (≈ 66.6 µM)	8 (≈ 33.3 µM)	16 (≈ 66.6 µM)	16 (≈ 66.6 µM)	–	–	–	–	–	–	–	–	–
CCN(CC)Cc1cc([N+](=O)[O-])c(O)c2ncccc12 [Example 94, 5-((diethylamino)methyl)-7-nitroquinolin-8-ol]	128 (≈ 465 µM)	128 (≈ 465 µM)	64 (≈ 232 µM)	64 (≈ 232 µM)	> 128	128 (≈ 465 µM)	> 128	> 128	> 128	–	–	–	–	–	–	–	–	–
O=[N+]([O-])c1cc(Cl)c2cc(CN3CCCCC3)cnc2c1O [Example 92, 5-chloro-7-nitro-3-(piperidin-1-ylmethyl)quinolin-8-ol]	> 128	> 128	64 (≈ 199 µM)	32 (≈ 99.5 µM)	128 (≈ 398 µM)	32 (≈ 99.5 µM)	16 (≈ 49.7 µM)	16 (≈ 49.7 µM)	16 (≈ 49.7 µM)	–	–	–	–	–	–	–	–	–
[2H]c1ccnc2c(O)c([N+](=O)[O-])cc(Cl)c12 [Example 120, 5-chloro-7-nitroquinolin-4-d-8-ol]	32 (≈ 142 µM)	32 (≈ 142 µM)	16 (≈ 70.9 µM)	8 (≈ 35.5 µM)	16 (≈ 70.9 µM)	8 (≈ 35.5 µM)	4 (≈ 17.7 µM)	16 (≈ 70.9 µM)	8 (≈ 35.5 µM)	–	–	–	–	–	–	–	–	–
O=[N+]([O-])c1c(Cl)c(F)c2cccnc2c1O [Example 123, 6-chloro-5-fluoro-7-nitroquinolin-8-ol]	–	–	–	–	–	–	–	–	–	16 (≈ 66 µM)	32 (≈ 132 µM)	8 (≈ 33 µM)	4 (≈ 16.5 µM)	8 (≈ 33 µM)	4 (≈ 16.5 µM)	2 (≈ 8.24 µM)	4 (≈ 16.5 µM)	4 (≈ 16.5 µM)
Cc1cnc2c(O)c([N+](=O)[O-])cc(Cl)c2c1 [Example 83, 5-chloro-3-methyl-7-nitroquinolin-8-ol]	128 (≈ 536 µM)	128 (≈ 536 µM)	32 (≈ 134 µM)	32 (≈ 134 µM)	64 (≈ 268 µM)	16 (≈ 67 µM)	4 (≈ 16.8 µM)	4 (≈ 16.8 µM)	4 (≈ 16.8 µM)	–	–	–	–	–	–	–	–	–
O=C(O)C(F)(F)F.O=[N+]([O-])c1cc(C(F)F)c2cccnc2c1O [Example 108, 5-(difluoromethyl)-7-nitroquinolin-8-ol trifluoroacetate]	> 128	> 128	> 128	–	–	–	> 128	> 128	128	–	–	–	–	–	–	–	–	–
O=[N+]([O-])c1cc(F)c2cccnc2c1O [Example 106, 5-fluoro-7-nitroquinolin-8-ol]	8 (≈ 38.4 µM)	128 (≈ 615 µM)	16 (≈ 76.9 µM)	–	–	–	16 (≈ 76.9 µM)	16 (≈ 76.9 µM)	16 (≈ 76.9 µM)	–	–	–	–	–	–	–	–	–
O=[N+]([O-])c1ccc2c(C3CCNCC3)ccnc2c1O [Example 105, 7-nitro-4-(piperidin-4-yl)quinolin-8-ol]	128 (≈ 468 µM)	> 128	128 (≈ 468 µM)	–	–	–	128 (≈ 468 µM)	128 (≈ 468 µM)	128 (≈ 468 µM)	–	–	–	–	–	–	–	–	–
Cc1c([N+](=O)[O-])c(O)c2ncccc2c1Cl [Example 107, 5-chloro-6-methyl-7-nitroquinolin-8-ol]	64 (≈ 268 µM)	128 (≈ 536 µM)	32 (≈ 134 µM)	–	–	–	4 (≈ 16.8 µM)	8 (≈ 33.5 µM)	8 (≈ 33.5 µM)	–	–	–	–	–	–	–	–	–
O=[N+]([O-])c1ccc2c(Cl)c(-c3ccccc3)cnc2c1O [Example 82, 4-chloro-7-nitro-3-phenylquinolin-8-ol]	> 128	> 128	> 128	> 128	> 128	128 (≈ 426 µM)	1 (≈ 3.33 µM)	1 (≈ 3.33 µM)	1 (≈ 3.33 µM)	–	–	–	–	–	–	–	–	–
O=[N+]([O-])c1cc(CN2CCCCC2)c2cccnc2c1O [Example 91, 7-nitro-5-(piperidin-1-ylmethyl)quinolin-8-ol acetate]	> 128	> 128	128	> 128	> 128	128	> 128	> 128	> 128	–	–	–	–	–	–	–	–	–
O=[N+]([O-])c1cc(CO)c2cccnc2c1O [Example 109, 5-(hydroxymethyl)-7-nitroquinolin-8-ol]	32 (≈ 145 µM)	64 (≈ 291 µM)	64 (≈ 291 µM)	–	–	–	128 (≈ 581 µM)	128 (≈ 581 µM)	64 (≈ 291 µM)	–	–	–	–	–	–	–	–	–
Cc1cc([N+](=O)[O-])c(O)c2ncccc12 [Example 4, 5-Methyl-7-nitroquinolin-8-ol]	–	–	–	32 (≈ 157 µM)	32 (≈ 157 µM)	–	–	–	–	–	–	–	–	–	–	–	–	–
